# Assay results as given in patent US20230355605A1, “DRUG FOR ENHANCING FIBRINOLYTIC SYSTEM, AND USE THEREFOR” (priority 2020, published 2023).
# Columns and labels:
# [1] = tested on: immature rat bone marrow erythrocytes; assay: Micronucleus study in rats; conditions: in vivo
# Description: The present compound was orally administered to rats to examine its micronucleus-inducing properties and bone marrow cell proliferation suppressive effect on immature bone marrow erythrocytes.
# Specifically, the present compound was orally administered to rats twice 24 hours apart, and bone marrow smears were prepared 18 to 24 hours after the last administration. 2000 immature erythrocytes (IEs) were observed per individual, and the percentage of micronucleated immature erythrocytes (micronucleated IEs, MNIEs) contained in the immature erythrocytes [MNIEs (%)] was calculated. In addition, 1000 erythrocytes were observed as the total erythrocyte count per individual, and the percentage of IEs in the total erythrocytes [IEs (%)] was determined.
# [2] = tested on: conscious cynomolgus monkeys; assay: Effect on cardiovascular and respiratory system (telemetry, blood gas); type: in vivo, cynomolgus monkey; conditions: single oral dose, up to 300 mg/kg
# Description: The effect of the present compound on the cardiovascular system and the respiratory system was examined by a telemetry method and blood gas measurement using conscious cynomolgus monkeys. Systemic exposure of the test substance was also evaluated. Specifically, a control substance (a 0.5 w/v% carmellose sodium aqueous solution) and the present compound were orally administered at single ascending dosages at intervals of 7 days, and the heart rate, blood pressure (systolic blood pressure, diastolic blood pressure, and mean blood pressure), electrocardiogram (PR interval, QRS duration, QT interval, and QTc interval), respiratory rate, and body temperature were measured before administration and 1, 2, 4, 6, and 24 hours after administration on each administration day with the monkeys unanesthetized and unrestrained. Furthermore, before administration and 2, 6, and 24 hours after administration on each administration day, arterial blood was collected, and blood gases (oxygen partial pressure, carbon dioxide partial pressure, pH, and oxygen saturation) were measured. Systemic exposure was also evaluated by measuring the concentration of the test substance in plasma.
# cynomolgus monkeys = assay: 39-week repeated oral dose toxicity study in cynomolgus monkeys; type: in vivo; conditions: 10, 30, 100 mg/kg oral, 39 weeks
# Description: A GLP-compliant 39-week repeated oral dose study was performed in cynomolgus monkeys at dosages of 10, 30, and 100 mg/kg.
# pregnant rats = assay: Embryo-fetal developmental toxicity study; type: in vivo, rat; conditions: oral, days 7 to 17 of gestation
# Description: The effect of oral administration of the present compound on embryo-fetal development was examined using rats. Specifically, the present compound was orally administered to pregnant rats from implantation to closure of the hard palate (days 7 to 17 of gestation), and the effect on the mothers, and embryos and fetuses was examined. Furthermore, the plasma concentration of the present compound after administration was measured, and its change was examined. During the study period, the general conditions of all of the animals were observed, and their body weights were measured; in the toxicity group, food consumption was measured; a Cesarean section test was performed on day 20 of gestation. Thereafter, fetal visceral and skeletal specimens were prepared, and a fetal examination was performed.
# BCR-ABL^IS = assay: Phase II long-term administration study with TKI in chronic-phase CML: efficacy against CML; type: in vivo, human; conditions: for Cumulative number of patients who achieved a DMR / Cumulative rate of patients who achieved a DMR: with TKI
# Description: Further, the efficacy of the combined use of the present compound and the TKI against CML was evaluated.
# The present compound was orally administered after breakfast to chronic-phase CML patients (33 patients) aged 20 or older and younger than 80 who had been treated orally with the TKI for 1 year or more. The dosage of the present compound was started at 150 mg/day. […] No patients dropped out or were withdrawn from the study, and all of the patients were included in analysis (SAS analysis, FAS analysis, and PPS analysis).
# The efficacy against CML was evaluated from the following two points: • (1) cumulative achievement rate of CML patients who reached a DMR (BCR-ABL^IS: 0.0032% or less) • (2) change in BCR-ABL^IS
# Within 28 days before the start of administration of the present compound, and 4, 8, 12, 24, 36, and 48 weeks after the start of administration of the present compound or at discontinuation, the investigator collected peripheral blood and conducted a test using a BCR-ABL^IS quantitative PCR kit (produced by Sysmex Corporation) to obtain results (IS%, ABL copy number, and BCR-ABL copy number).
# rats = assay: Reproductive and developmental toxicity study (fertility and early embryogenesis); type: in vivo, rat; conditions: oral, male and female rats
# Source text: The effect of oral administration of the present compound on fertility and early embryogenesis up to implantation was examined using rats. Specifically, the present compound was orally administered to male and female rats for 2 weeks before mating, during mating, until the day before necropsy for the males, and until day 7 of gestation for the females, and the effect on fertility and early embryogenesis of the parents was examined. During the study period, the general conditions, body weights, and food consumption of all of the animals were observed and measured, and a fertility test was performed for the males and females. For the females, an estrous cycle test was performed, and a Cesarean section test was performed at day 13 of gestation. In the females, necropsy was performed at the time of Cesarean section, and in the males, necropsy was performed after completion of the Cesarean section of females.
# [3] = tested on: chronic-phase chronic myeloid leukemia (CML) patients; assay: Phase II study in combination with TKI in chronic-phase CML patients (4 weeks); type: in vivo, human
# Source text: The present compound and a tyrosine kinase inhibitor (hereinafter referred to as “TKI”) were used in combination and repeatedly administered orally to patients with chronic-phase chronic myeloid leukemia (CML patients) to evaluate the safety of the present compound and the effectiveness of the present compound against CML.
# Oral administration of the TKI, which is a drug used in combination, was continued for a total of 12 weeks, including the 8-week observation period. The safety analysis set (SAS) and the full analysis set (FAS) each consisted of the 21 patients, and the per protocol set (PPS) consisted of 18 patients.
compound,measurement,setting,value
"O=C(Nc1ccc(Cl)cc1C(=O)[O-])c1cccc(-c2cccc3cccnc23)c1.[Na+] [present compound, sodium 5-chloro-2-({ [3-(quinolin-8-yl)phenyl]carbonyl}amino)benzoate]",micronucleus-inducing effect on immature rat bone marrow erythrocytes,[1],no micronucleus-inducing effect
same,proliferation suppressive effect on bone marrow cells,[1],no proliferation suppressive effect
same,effect on the cardiovascular system or the respiratory system,[2],no effect
same,deaths during the administration period,cynomolgus monkeys,No deaths
same,"effect on general condition, body weight, food consumption, ophthalmology, ECG, hematology, urinalysis, necropsy, organ weights",cynomolgus monkeys,No effect
same,"effect on pregnancy, embryos and fetuses",pregnant rats,"no effect on maintenance of pregnancy, no embryolethal effect, no fetal growth suppressive effect, and no teratogenic effect"
same,no-observed-adverse-effect level for embryos and fetuses,pregnant rats,1000 mg/kg/day
same,no-observed-adverse-effect level for the mothers,pregnant rats,1000 mg/kg/day
same,Cumulative number of patients who achieved a DMR,"BCR-ABL^IS; 4 weeks after the start of administration, 33 patients",5
same,Cumulative rate of patients who achieved a DMR,BCR-ABL^IS; 4 weeks after the start of administration,15.2%
same,Cumulative number of patients who achieved a DMR,"BCR-ABL^IS; 8 weeks after the start of administration, 33 patients",9
same,Cumulative rate of patients who achieved a DMR,BCR-ABL^IS; 8 weeks after the start of administration,27.3%
same,Cumulative number of patients who achieved a DMR,"BCR-ABL^IS; 12 weeks after the start of administration, 33 patients",9
same,Cumulative rate of patients who achieved a DMR,BCR-ABL^IS; 12 weeks after the start of administration,27.3%
same,change in BCR-ABL^IS vs baseline,"BCR-ABL^IS; 15 patients, 150 mg/day continuous, weeks 12 and 24",significant decrease
same,change in BCR-ABL^IS vs baseline,"BCR-ABL^IS; 18 patients, 150 mg/day to 180 mg/day increase, week 48",significant decrease
same,Cumulative number of patients who achieved a DMR,"BCR-ABL^IS; 24 weeks after the start of administration, 33 patients",10
same,Cumulative rate of patients who achieved a DMR,BCR-ABL^IS; 24 weeks after the start of administration,30.3%
same,change in BCR-ABL^IS vs baseline,"BCR-ABL^IS; 33 patients, from week 12 onward, Wilcoxon test",significant decrease
same,Cumulative number of patients who achieved a DMR,"BCR-ABL^IS; 36 weeks after the start of administration, 33 patients",11
same,Cumulative rate of patients who achieved a DMR,BCR-ABL^IS; 36 weeks after the start of administration,33.3%
same,Cumulative number of patients who achieved a DMR,"BCR-ABL^IS; 48 weeks after the start of administration, 33 patients",11
same,Cumulative rate of patients who achieved a DMR,BCR-ABL^IS; 48 weeks after the start of administration,33.3%
same,cumulative DMR achievement rate,"BCR-ABL^IS; from week 36 onward, 150 to 180 mg/day with TKI",33.3%
same,patients who achieved a DMR,"BCR-ABL^IS; of the 33 patients, 150 to 180 mg/day with TKI",11 patients
same,BCR-ABL^IS level (mean ± standard deviation),"BCR-ABL^IS; week 4, 33 patients, P = 0.1222",0.0134±0.01301%
same,BCR-ABL^IS level (mean ± standard deviation),"BCR-ABL^IS; week 8, 33 patients, P = 0.0929",0.0129±0.01569%
same,BCR-ABL^IS level (mean ± standard deviation),"BCR-ABL^IS; week 12, 33 patients, P = 0.0228",0.0133±0.02012%
same,BCR-ABL^IS level (mean ± standard deviation),"BCR-ABL^IS; week 24, 33 patients, P = 0.0427",0.0149±0.02596%
same,BCR-ABL^IS level (mean ± standard deviation),"BCR-ABL^IS; week 36, 33 patients, P = 0.0304",0.0152±0.03427%
same,BCR-ABL^IS level (mean ± standard deviation),"BCR-ABL^IS; week 48, 33 patients, P = 0.0124",0.0210±0.06718%
same,"no-observed-adverse-effect level in the parent animals, including fertility",rats,1000 mg/kg/day
same,no-observed-adverse-effect level with respect to early embryogenesis,rats,1000 mg/kg/day
same,"cumulative DMR achievement rate (MR 4.5, BCR-ABL^IS≤0.0032%)",[3]; 120 mg once daily 4 weeks in combination with TKI,increased
same,adverse events causally related to the investigational drug,"[3]; 120 mg once daily 4 weeks with TKI, 21 patients (SAS)",No adverse events
